Key:
[1] = test system: Human NK cells; experiment: CellTiterBlue viability measurement on human NK cells; format: cell-based; details: 48 hours treatment; 6.25, 12.5, 25 or 50 μM of 6-PN or 8-PN, SAHA in low concentrations; versus untreated control; FIG. 2
Protocol: Human NK cells were treated for 48 hours with 6.25, 12.5, 25 or 50 μM of 6-PN or 8-PN. In the following a viability measurement was carried out (CellTiterBlue Viability Asasy, Promega, Madison, United States of America). The clinically used and established HDACi SAHA (Vorinostat) was used in low concentrations as a reference die for both natural HDACi 6-PN and 8-PN. Shown are the mean values with a standard deviation from three independent experiments with expanded NK cells from three healthy human donors. The horizontal continuous line visualizes the value of the untreated control; a decrease of the fluorescence signal means a reduction of the viability.

[2] = test system: DU145; details: in vitro; cited from earlier work
[3] = test system: Human NK cells; experiment: Overall survival of NK cells, trypan blue staining and daily microscopic counting; format: cell-based; details: one time treatment with 6.25, 12.5, 25 or 50 μM; versus untreated control and SAHA treated cells; FIG. 3
Protocol: Human NK cells were treated with 6.25, 12.5, 25 or 50 μM of 6-PN or 8-PN. Subsequently via a tryptan blue staining and a daily microscopic counting in standardized C chip counter chambers the overall survival of NK cells was measured. As a reference dye again the HDACi SAHA (Vorinostat) was used. Shown is the average value with standard deviation from three independent experiments with expanded NK cells from three healthy human donors. The left arrow visualizes <10% of living cells in the SAHA treatment group; the right arrow visualizes <10% of living cells in the untreated control group.

[4] = test system: NK cell line NKL; experiment: Metabolic activity of NKL cells, Promega CellTiter-Blue Assay; format: cell-based; details: one time 12.5 μM or 25 μM; after 48 h; FIG. 8B
Protocol: (§1) The result is shown in the FIG. 8: A PBMCs of two healthy donors were one time treated with 12.5 μM or 25 μM of 6-PN or 8-PN and examined after 48 hours. B NKL cells were one time treated with 12.5 μM or 25 μM of 6-PN or 8-PN and examined after 48 h. In both immune cell populations and in both treatments an increase of a metabolic activity can be detected; shown is the average value +/−SD.

[5] = test system: NK cells of healthy donors; experiment: NK cell viability with automated cell counting device (NC-250); format: cell-based, human; details: one time 12.5 μM or 25 μM; daily over 336 h; FIG. 6
Protocol: The examination therefore is independent from the experimentator. NK cells of two healthy donors were one time treated with 12.5 μM or 25 μM of 6-PN or 8-PN, respectively, and subsequently two independent points in time on a daily basis examined by means of a nucleo counter NC-250 cell counting device with respect to viability over a time period of 336 h; shown is the average value +/−SD.

[6] = test system: melanoma tumor cells with adherent immune cells; experiment: Primary patient material: melanoma tumor cells with adherent immune cells, tumor cell count; format: cell-based, human; details: 12.5 μM or 25 μM; 48, 72, and 96 hours after the start of the treatment; **P<0.01; FIG. 5
[7] = test system: angiogenesis; details: chorioallantois membrane assays; cited from earlier work
[8] = test system: Hep3B; experiment: NK activity on a further tumor cell line by realtime cell monitoring; format: cell-based; details: compared with the HepG2 result
[9] = test system: angiogenesis induced by the basic fibroblast growth factor and the vascular endothelial growth factor; details: three dimensional collagen gel; bFGF and VEGF induced; cited from earlier work
[10] = test system: human hepG2 tumor cells; experiment: NK activity on HepG2 tumor cells by realtime cell monitoring (xCELLigence impedance); format: cell-based
Protocol: In a further experiment the NK activity on human hepG2 tumor cells by means of realtime cell monitoring (Roche Applied Sciences xCELLigence SP-System, Mannheim, Germany) was analyzed. […] The cellular impedance of the adherent tumor cells were measured as parameters for the cell status (cell number, viability, morphology, adhesion). As a positive control for the induction of cell death Triton X-100 was used. Three independent experiments with expanded NK cells from three healthy human donors were carried out. Shown are the average values with standard deviation of one exemplary experiment. The HepG2 tumor cells (target) were incubated at the start of the treatment (24 hours) with 25 μM of 6-PN or 8-PN or with NK cells (effector) (effector to target ratio (E:T)=1.25:1 or 2.5:1) or with the combination of HDACi and NK cells. The normalization happened at the start of the treatment and a decrease of the impedance (normalized cell index) means a reduction of the cell viability or the cell status, respectively.

[11] = test system: PBMCs of healthy donors; experiment: Metabolic activity of PBMCs, Promega CellTiter-Blue Assay; format: cell-based, human; details: one time 12.5 μM or 25 μM; after 48 hours; FIG. 8A
Protocol: as §1

[12] = test system: estrogen receptors of the uterus of rats; details: cited from earlier work
[13] = test system: PC-3; details: in vitro; cited from earlier work
[14] = target: MRP1 (Homo sapiens, UniProt P33527); details: cited from earlier work
Sequence of MRP1 (P33527 whole entry): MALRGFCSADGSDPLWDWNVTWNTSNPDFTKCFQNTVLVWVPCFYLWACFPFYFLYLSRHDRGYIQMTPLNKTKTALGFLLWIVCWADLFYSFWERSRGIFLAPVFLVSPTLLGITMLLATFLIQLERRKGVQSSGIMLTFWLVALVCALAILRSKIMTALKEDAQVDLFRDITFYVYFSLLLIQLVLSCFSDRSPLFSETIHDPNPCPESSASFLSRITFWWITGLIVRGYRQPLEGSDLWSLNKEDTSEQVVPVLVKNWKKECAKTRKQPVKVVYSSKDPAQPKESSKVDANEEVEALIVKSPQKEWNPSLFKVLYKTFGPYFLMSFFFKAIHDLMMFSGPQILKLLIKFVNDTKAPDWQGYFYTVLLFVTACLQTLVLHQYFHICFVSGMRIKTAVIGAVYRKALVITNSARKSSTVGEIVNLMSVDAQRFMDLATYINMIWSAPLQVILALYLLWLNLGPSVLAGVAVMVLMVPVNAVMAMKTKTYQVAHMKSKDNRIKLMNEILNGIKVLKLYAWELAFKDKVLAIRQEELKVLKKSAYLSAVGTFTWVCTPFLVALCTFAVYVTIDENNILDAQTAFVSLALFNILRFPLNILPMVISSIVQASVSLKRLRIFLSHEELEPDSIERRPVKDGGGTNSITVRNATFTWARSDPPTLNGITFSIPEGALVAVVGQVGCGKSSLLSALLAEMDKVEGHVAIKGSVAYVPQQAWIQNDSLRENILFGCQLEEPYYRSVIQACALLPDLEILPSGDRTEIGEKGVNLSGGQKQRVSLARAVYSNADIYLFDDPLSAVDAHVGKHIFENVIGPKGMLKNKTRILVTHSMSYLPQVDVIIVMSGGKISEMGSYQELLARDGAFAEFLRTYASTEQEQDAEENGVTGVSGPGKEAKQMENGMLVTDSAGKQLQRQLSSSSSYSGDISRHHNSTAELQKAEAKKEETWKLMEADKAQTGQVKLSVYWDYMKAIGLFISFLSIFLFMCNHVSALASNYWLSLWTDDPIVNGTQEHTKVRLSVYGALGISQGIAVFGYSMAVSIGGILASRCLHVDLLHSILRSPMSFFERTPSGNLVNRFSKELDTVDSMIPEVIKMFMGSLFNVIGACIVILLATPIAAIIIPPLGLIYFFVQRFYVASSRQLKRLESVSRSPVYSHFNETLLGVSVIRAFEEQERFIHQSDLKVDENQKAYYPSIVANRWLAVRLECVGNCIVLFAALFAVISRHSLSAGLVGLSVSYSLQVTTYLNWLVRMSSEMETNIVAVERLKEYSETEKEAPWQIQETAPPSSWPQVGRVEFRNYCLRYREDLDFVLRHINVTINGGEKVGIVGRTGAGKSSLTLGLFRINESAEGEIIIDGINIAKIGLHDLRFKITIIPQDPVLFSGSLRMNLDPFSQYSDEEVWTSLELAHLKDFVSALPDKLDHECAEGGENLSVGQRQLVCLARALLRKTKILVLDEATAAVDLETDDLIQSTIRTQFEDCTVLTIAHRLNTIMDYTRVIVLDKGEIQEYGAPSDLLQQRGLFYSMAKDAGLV

[15] = target: P glycoprotein (Homo sapiens, UniProt P08183); details: cited from earlier work
Sequence of P glycoprotein (P08183 whole entry): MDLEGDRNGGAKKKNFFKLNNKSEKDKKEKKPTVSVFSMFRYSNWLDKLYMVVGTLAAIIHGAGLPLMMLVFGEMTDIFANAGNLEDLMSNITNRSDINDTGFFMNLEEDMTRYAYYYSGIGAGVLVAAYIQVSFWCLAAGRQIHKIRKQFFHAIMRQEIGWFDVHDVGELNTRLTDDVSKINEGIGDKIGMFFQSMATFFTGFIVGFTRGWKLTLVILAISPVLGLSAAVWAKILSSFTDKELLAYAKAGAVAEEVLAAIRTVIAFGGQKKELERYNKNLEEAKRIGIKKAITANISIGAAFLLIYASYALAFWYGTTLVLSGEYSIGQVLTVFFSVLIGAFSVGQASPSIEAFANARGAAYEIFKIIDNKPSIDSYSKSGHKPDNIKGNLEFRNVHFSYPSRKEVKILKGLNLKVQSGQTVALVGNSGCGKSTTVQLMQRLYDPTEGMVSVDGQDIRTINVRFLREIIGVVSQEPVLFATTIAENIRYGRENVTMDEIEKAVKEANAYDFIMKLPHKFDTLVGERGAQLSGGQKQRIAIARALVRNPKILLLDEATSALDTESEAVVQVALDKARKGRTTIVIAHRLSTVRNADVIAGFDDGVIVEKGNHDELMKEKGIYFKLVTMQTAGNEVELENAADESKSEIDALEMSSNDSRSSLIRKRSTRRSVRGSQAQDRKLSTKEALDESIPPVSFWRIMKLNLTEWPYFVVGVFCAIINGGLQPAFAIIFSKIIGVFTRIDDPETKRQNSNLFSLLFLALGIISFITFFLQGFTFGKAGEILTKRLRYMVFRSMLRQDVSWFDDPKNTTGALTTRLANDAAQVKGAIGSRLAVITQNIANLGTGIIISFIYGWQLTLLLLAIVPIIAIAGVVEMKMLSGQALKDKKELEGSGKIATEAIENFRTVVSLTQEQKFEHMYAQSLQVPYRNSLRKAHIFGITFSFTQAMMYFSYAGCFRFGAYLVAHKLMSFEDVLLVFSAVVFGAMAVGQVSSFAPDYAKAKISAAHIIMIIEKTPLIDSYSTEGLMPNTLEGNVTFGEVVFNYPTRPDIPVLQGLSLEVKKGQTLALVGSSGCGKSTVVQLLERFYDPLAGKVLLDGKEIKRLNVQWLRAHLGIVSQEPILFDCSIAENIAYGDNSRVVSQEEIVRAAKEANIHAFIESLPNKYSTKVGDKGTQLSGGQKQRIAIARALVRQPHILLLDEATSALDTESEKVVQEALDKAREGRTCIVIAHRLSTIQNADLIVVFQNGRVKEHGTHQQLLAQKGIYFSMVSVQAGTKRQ

[16] = test system: PBMCs of healthy donors; experiment: PBMC viability with automated cell counting device (NC-250); format: cell-based, human; details: one time 12.5 μM or 25 μM; daily over 336 hours; FIG. 7
Protocol: The result is shown in the FIG. 7: PBMCs of three healthy donors were one time treated with 12.5 μM or 25 μM of 6-PN or 8-PN and subsequently on a daily basis at independent points in time examined by means of a nucleo counter NC-250 cell counting device with respect to viability over a time period of 336 hours; shown is the average value +/−SD.

[17] = test system: MCF7 cells; details: cited from earlier work
[18] = test system: histone deacetylases (HDACs) of classes I, II, and IV; details: cited from earlier work
[19] = test system: PI (3) K/Akt signaling pathway; details: MCF-7 cells in vitro; cited from earlier work

## O=C(CCCCCCC(=O)Nc1ccccc1)NO [SAHA, reference compound]
[1]
  viability of human NK cells: significant decrease of the viability

## CC(C)=CCc1c(O)cc(O)c2c1OC(c1ccc(O)cc1)CC2=O (stereo not drawn) [8-PN, 5,7-dihydroxy-2-(4-hydroxy-phenyl)-8-(3-methyl-but-2-enyl)-chroman-4-one]
[2]
  antiproliferative effects on DU145: antiproliferative effects
[3]
  survival rate of the NK cells: significantly increased
[4]
  metabolic activity of NKL cells: increase the metabolic activity
[5]
  viability of NK cells of healthy donors: increase/extend the viability
[1]
  viability of human NK cells: in parts significant increase of the viability
[6]
  quantitative evaluation of the tumor cells (melanoma cells): significant decrease of the melanoma cells
[7]
  angiogenesis in vivo: inhibits the angiogenesis
[8]
  activity of NK cells on further tumor cell line: equivalent results
[9]
  angiogenesis in vitro: inhibits the angiogenesis
[10]; 25 μM with NK cells, E:T 1.25:1 or 2.5:1, FIG. 4
  activity of the human NK cells over human tumor cells (normalized cell index): increased activity of the human NK cells
[10]; compound without NK cells
  sensitivity of HepG2 tumor cells against the compound: low sensitivity
[11]
  metabolic activity of PBMCs: increase the metabolic activity
[12]
  binding affinity for estrogen receptors: strong binding affinity
[13]
  antiproliferative effects on PC-3: antiproliferative effects
[14]
  inhibition of MRP1: inhibition
[15]
  inhibition of the P glycoprotein: inhibition
[16]
  viability of PBMCs of healthy donors: increase/extend viability
[17]
  apoptosis in MCF7 cells: induces furthermore the apoptosis
[18]
  inhibition of histone deacetylases (HDACs) of classes I, II, and IV: distinct inhibitors
[19]
  activation of the PI (3) K/Akt signaling pathway: directly inhibits the activation
